Test results published in patent publication US20090131370A1, “Novel Nucleoside Derivatives” (METABASIS THERAPEUTICS , INC., priority 2004, published 2009).
Read-outs that look alike come from different tables or passages of the source.

What was measured:
[1] = rat, in vivo
Description: Analog and Its 2′,3′-Carbonate Prodrugs The liver selectivity of an antiviral nucleoside, 2′-B-C-methyladenosine, and its 2′,3′-carbonate prodrugs was evaluated in the rat by comparing liver nucleotide concentrations to levels of a major metabolite in the plasma or to concentrations of extrahepatic nucleotides. An elevated liver selectivity index is an indication of improved liver targeting of the antiviral agent and reduced exposure to other organs that may be potential targets of toxicity.
At pre-specified times of 20 min, 1, 3, 5, 8, 16, and 24 hrs post dose, liver, heart, and thigh muscle samples (˜1 g) were harvested by freeze-clamping and homogenized in 3 volumes of ice-cold acetonitrile. Following centrifugation to clarify the homogenate, aliquots of the tissue extracts were evaporated to dryness on a Savant Speed-Vac Plus (1 hr, room temperature). The resulting dried residue was reconstituted with 100 μL of mobile phase and then analyzed for nucleotides by an LC-MS/MS method as described in Example I. In addition to solid tissue, blood was collected in heparin tubes at the pre-specified times and centrifuged to obtain plasma. The plasma samples (100 μL) were extracted with 1.5 volumes of methanol and centrifuged for 20 min at top speed on a microfuge. Plasma concentrations of a major metabolite of 2′-B-C-methyladenosine, i.e., 2′-B-C-methylinosine, were determined by LC-UV as described in Example E.
The area under the curve (AUC) to the last measurable time point was calculated by trapezoidal summation of the liver, heart, and muscle concentration-time profile of total nucleotides and NTP and of the plasma concentration-time profile of the major metabolite 2′-B-C-methylinosine. The liver selectivity index was determined by two methods: (1) dividing liver NTP AUC by heart nucleotide AUC and (2) dividing liver NTP AUC by plasma 2′-3-C-methylinosine AUC.

[2] = system: HCV; assay: Antiviral activity in HCV-infected human liver slice assay; assay type: cell-based, hepatitis C virus; settings: HCV RNA in culture media
Description: The effect of various compounds on HCV replication in human liver tissue was evaluated as described below.
Liver from a brain-dead HCV antibody-positive human patient was perfused with ice-cold Viaspan (Dupont Pharmaceutical) preservation solution and received on ice in Viaspan.
Precision-cut liver slices of ˜200-250 μm thickness and […] diameter were prepared and cultured in Waymouth's cell culture medium (Gibco, Inc.) that was supplemented with 10% fetal bovine serum and 10 mL/L Fungi-Bact at 37° C., and gassed with carbogen (95% O2, 5% CO2) at 0.75 liters/min. Tissue slices were maintained in culture for 72 h. Cell culture medium containing test compound in solution was changed on a daily basis.
At appropriate times of liver slice incubation, liver slices and medium were collected for analysis of HCV RNA (tissue and medium) and nucleotide levels (NTP). All collected media and tissue slices were maintained in liquid N2 until analysis.
Medium and tissue samples were analyzed for HCV RNA levels according to published procedures (Bonacini et. al., 1999) which utilize an automated, multicycle, polymerase chain reaction (PCR)-based technique. This assay has a lower limit of detection for HCV RNA of 100 viral copies/ml. Frozen liver slices were disrupted by using a combination of ultrasound probe sonication, Branson Sonifier 450 (Branson Ultrasonics, Danbury, Conn.) and homogenization using a Dounce conical pestle in 200 μls of 10% (v/v) perchloric acid (PCA). After a 5 min centrifugation at 2,500×g, the supernatants were neutralized using 3 M KOH/3 M KHCO3 and mixed thoroughly. The neutralized samples were centrifuged at 2,500 g for 5 min and NTP levels were determined by ion exchange phase HPLC (Hewlett Packard 1050) using a Whatman Partisil 5 SAX (5 μm, 4.6×250 mm) column. Samples (50 μL) were injected onto the column in 70% 10 mM ammonium phosphate buffer and 30% 1 M ammonium phosphate buffer, both at pH 3.5 and containing 6% ethanol. Nucleoside triphosphates were eluted from the column using a linear gradient to 80% 1 M ammonium phosphate pH 3.5/6% ethanol buffer, at a flow rate of 1.25 mL/min and detected by UV absorbance (254 nm).

[3] = Oral bioavailability in the rat based on liver nucleotide concentrations
Description: At pre-specified times of 20 min, 1, 3, 5, 8, 16, and 24 hrs post dose, liver samples (˜1 g) were collected by freeze-clamping and homogenized in 3 volumes of ice-cold 60% acetonitrile. Following centrifugation to clarify the homogenate, aliquots of the supernatants (100 μL) were evaporated to dryness on a Savant Speed-Vac Plus (1 hr, room temperature). The resulting dried residue was reconstituted with 100 μL of mobile phase and then analyzed for nucleotides by an LC-MS/MS method as described below.
The reconstituted extracts in mobile phase A (20 mM N,N-dimethylhexylamine and 10 mM propionic acid in 20% methanol) were analyzed by LC-MS/MS (Applied Biosystems, API 4000) equipped with an Agilent 1100 binary pump and a LEAP injector. […] Where possible, the quantitative analysis of liver NMP, NDP, and NTP were calculated based on a calibration curve generated from their respective standards (0.01-30 μM).
The area under the curve (AUC) to the last measurable time point were calculated by trapezoidal summation of the liver concentration-time profile of total nucleotides and NTP. The OBAV was determined by dividing the dose-normalized AUC following oral administration by the AUC following IV dosing.

[4] = Susceptibility to non-productive metabolism (deamination) in vitro in rat whole blood or plasma; assay type: in vitro ADME
Description: The susceptibility of 2′-β-C-methyladenosine, and its 2′,3′-carbonate prodrugs to non-productive metabolism was evaluated in vitro and in vivo. […] Aliquots of the blood and plasma samples were removed periodically and extracted with perchloric acid and methanol, respectively, and then centrifuged. The acidic supernatants were neutralized with potassium carbonate and recentrifuged. […] Analysis (50 μL) was performed on an Agilent Zorbax SB-Aq column (4.6×150 mm) eluted with a gradient consisting of a mixture of Buffer A (20 mM potassium phosphate pH 6.2) and Buffer B (acetonitrile) (0-10 min, 0-10%; 10-20 min, 10-80%, 20-21 min, 80-0%; 21-30 min, 0-0%) and UV absorbance monitoring at 265 nm. The flow rate was 1.5 mL/min and the column temperature was set at 40° C. Concentrations of metabolite were determined from calibration curves prepared by spiking known amounts of standards to plasma and processing as before.

[5] = Kinetics of conversion of HepDirect-carbonate prodrugs to nucleoside monophosphates by human liver microsomes; assay type: in vitro ADME; settings: activation to NMP, Lineweaver-Burke plot
Description: The kinetics of activation of prodrug analogues to NMP were evaluated in the microsomal fraction of human liver.
Human liver microsomes were purchased from In Vitro Technologies. The study was performed at 2 mg/mL human liver microsomes, 100 mM KH2PO4, 10 mM glutathione, 0-250 μM compound, and 2 mM NADPH for 0-7.5 min. in an Eppendorf Thermomixer 5436 (37° C., 850 rpm). The reactions were initiated by addition of NADPH following a 2-min. preincubation. Reactions were quenched with 60% methanol at 0, 2.5, 5, and 7.5 min. The resulting extracts were clarified by centrifugation at 14,000 rpm in an Eppendorf microfuge (20 min.). The supernatants (200 μL) were evaporated under vacuum and, heat to dryness. The dried residue was reconstituted with 200 μL of water and the mixture was centrifuged for 10 min at 14,000 rpm. […] NMP was detected by using MS/MS mode (M^−/78.8) and quantified based on comparison to a standard of lamivudine monophosphate. Kinetic parameters were determined from a Lineweaver-Burke plot of the data with use of SigmaPlot 9.0 software.

[6] = Susceptibility to non-productive metabolism in vivo: 2′-β-C-methylinosine AUC in rat plasma and tissues; design: species or system male Sprague-Dawley rats; settings: male, Sprague-Dawley
Description: The susceptibility of 2′-β-C-methyladenosine, and its 2′,3′-carbonate prodrugs to non-productive metabolism was evaluated in vitro and in vivo. […] Also at the pre-specified times, blood (heparinized) was collected from the vena cava and centrifuged briefly to obtain plasma. […] The supernatant was then analysis for deaminated products and other metabolites by LC-UV as described above.

[7] = Conversion of Compound 31.5 to 2′-β-methyladenosine in rat liver S9; assay type: in vitro ADME; settings: Rat liver S9, 37° C., pH 7.4
Description: (§1) The rate of Compound 31.5 conversion to nucleoside was evaluated in liver S9 obtained from rat, dog, monkey and human liver. […] The homogenate was centrifuged in a Sorvall RC-5B Refrigerated Superspeed Centrifuge (30 minutes at 10,000 g) and the resulting supernatant used in the assays. The other S9 preparations were purchased from 1n Vitro Technologies. […] Aliquots of the reaction mixture were quenched with 2 volumes of ice-cold acetonitrile/0.2% formic acid (pH 3.0) at appropriate time intervals, briefly vortexed, and then immediately placed on dry ice. After all time points were taken, the samples were centrifuged in an Eppendorf microfuge (14,000 rpm, 10 minutes). The supernatant fractions were analyzed for disappearance of prodrug (and appearance of 2′-β-methyladenosine) by reverse phase HPLC on an Agilent Zorbax SB-Aq column (511m, 4.6×150 mm). The loading mobile phase buffer (Buffer A) consisted of a 9:1 ratio (v/v) of 20 mM potassium phosphate, pH 6.2 and acetonitrile. […] The elution of reaction components was monitored at […]. Quantitation was by comparison to authentic standards prepared in liver S9 and processed in an identical fashion to the unknown samples. The rate of prodrug conversion was calculated from the linear portion of the reaction curves and expressed as nmoles converted per mg of S9 protein per minute of reaction time.

[8] = Conversion of Compound 31.5 to 2′-β-methyladenosine in dog (Beagle) liver S9; assay type: in vitro ADME; settings: Beagle liver S9, 37° C., pH 7.4
Description: as §1

[9] = Conversion of Compound 31.5 to 2′-β-methyladenosine in human liver S9; assay type: in vitro ADME; settings: Human liver S9, 37° C., pH 7.4
Description: as §1

[10] = Conversion of Compound 31.5 to 2′-β-methyladenosine in monkey liver S9; assay type: in vitro ADME; settings: Monkey liver S9, 37° C., pH 7.4
Description: as §1

Row | Compound | % decrease in viral RNA relative to untreated liver slices ([2]; 0.25 μM) [%] | % decrease in viral RNA relative to untreated liver slices ([2]; 2.5 μM) [%] | % decrease in viral RNA relative to untreated liver slices ([2]; 25 μM) [%] | % decrease in viral RNA relative to untreated liver slices ([2]; 100 μM) [%] | Km [5] [µM] | Vmax [5] [nmol/min/mg] | Heart Nucleotides AUC ([1]; male, Sprague-Dawley) | Liver NTP AUC ([1]; male, Sprague-Dawley) | Plasma 2′-β-C-Methylinosine AUC ([1]; male, Sprague-Dawley) | deaminated product 2′-B-C-methylinosine in plasma, liver, heart, and muscle tissue [6] | deaminated product (2′-β-C-methylinosine) after incubation in rat whole blood in vitro ([4]; rat) | ORAL BIOAVAILABILITY ([3]; male, Sprague-Dawley, in vivo) [%] | other results
1 | 2′-β-C-methyladenosine [reference compound] | 0 | 83 | 94 | 92 | – | – | – | – | – | – | – | – | Liver NTP AUC [1]: 15; Plasma 2′-β-C-Methylinosine AUC [1]: 11; Plasma concentrations of the main metabolite, 2′-B-C-methylinosine [1]: detectable; concentrations of nucleotides of 2′-methyladenosine in heart and muscle tissue [1]: measurable in heart and muscle tissue; ORAL BIOAVAILABILITY ([3]; dose-normalized liver nucleotide AUC oral / IV): < 5%; ORAL BIOAVAILABILITY ([3]; dose-normalized liver nucleotide AUC oral / IV, listed as 2′-β-C-Methyladenosine): 2%; deaminated product (2′-β-C-methylinosine) after incubation in rat whole blood in vitro ([4]; rat whole blood, 37° C.): 2′-β-C-methylinosine was observed
2 | C[C@@]12OC(=O)O[C@@H]1[C@@H](COP1(=O)OCC[C@@H](c3ccncc3)O1)O[C@H]2n1cnc2c(N)ncnc21 (stereo partly shown) [Compound 30.1] | – | – | – | – | 64 | 0.36 | 2.6 | 841 | < 7.1 | no or only trace levels of the deaminated product were measurable | no deaminated products were detected | – | –
3 | CC1(C)C[C@@H](c2cccc(F)c2F)OP(=O)(OC[C@H]2O[C@@H](n3cnc4c(N)ncnc43)[C@]3(C)OC(=O)O[C@H]23)O1 (stereo partly drawn) [Compound 30.10, cis-5′-O-[6-(2,3-Difluorophenyl)-4,4-dimethyl-2-oxo-1,3,2-dioxaphosphorinan-2-y]-2′,3′-carbonyl-2′-C-methyl-adenosine] | – | – | – | – | 44.5 | 0.12 | < 2.8 | – | < 7.1 | no or only trace levels of the deaminated product were measurable | no deaminated products were detected | 21 | –
4 | C[C@@]12OC(=O)O[C@@H]1[C@@H](CO)O[C@H]2n1cnc2c(N)ncnc21 [Compound 31.5, 2′,3′-Carbonyl-2′-C-beta-methyl-adenosine] | 0 | 93 | 85 | 75 | – | – | 23 | 2522 | 25 | 2′-B-C-methylinosine was detected in plasma, liver, heart, and muscle tissue | 2′-β-C-methylinosine was observed | 95 | Specific activity (rate of prodrug disappearance) [7]: 0.28 ± 0.03 nmol/min/mg; Specific activity (rate of prodrug disappearance) [8]: 2.0 ± 0.3 nmol/min/mg; Specific activity (rate of prodrug disappearance) [9]: 0.03 ± 0.005 nmol/min/mg; Specific activity (rate of prodrug disappearance) [10]: 0.024 ± 0.003 nmol/min/mg
5 | C[C@@]1(O)[C@H](O)[C@@H](COP2(=O)OCC[C@H](c3cccc(Cl)c3)O2)O[C@H]1n1ccc2c(N)ncnc21 (stereo partly drawn) [Example 16.1, 4-Amino-7-(cis-5′-O-[4-(3-chlorophenyl)-2-oxo-1,3,2-dioxaphosphorinan-2-yl]-2′-C-methyl-beta-D-ribofuranosyl)-7H-pyrrolo[2,3-d]pyrimidine] | – | – | – | – | – | – | – | – | – | – | – | – | melting point: 138 to 141 °C
